Experimental data from patent US11026957B2, “Method to treat lipid dysregulation by modulation of proprotein convertase subtilisin/kexin type 9 (PCSK9) protein activity with small molecule ligands” (SRX CARDIO, LLC, priority 2014, dated 2021).

Biological target: recombinant human PCSK9 (Homo sapiens, UniProt Q8NBP7)
Experiment: Direct binding measurement by backscatter interferometry
Settings: 6-point binding curve, ±8 nM, r^2 of 0.86
Protocol: Direct binding was measured using backscatter interferometry, which has been previously described in “Interferometric detection system and method” (EP 1210581), “Free solution measurement of molecular interactions by backscattering interferometry” (WO 2009039466), “Temperature-stable interferometer” (WO 2009076372), and “Improved event detection for back-scattering interferometry” (WO 2013158300); which are incorporated herein in their entirety by reference.

recombinant human PCSK9, sequence (Q8NBP7 153-692): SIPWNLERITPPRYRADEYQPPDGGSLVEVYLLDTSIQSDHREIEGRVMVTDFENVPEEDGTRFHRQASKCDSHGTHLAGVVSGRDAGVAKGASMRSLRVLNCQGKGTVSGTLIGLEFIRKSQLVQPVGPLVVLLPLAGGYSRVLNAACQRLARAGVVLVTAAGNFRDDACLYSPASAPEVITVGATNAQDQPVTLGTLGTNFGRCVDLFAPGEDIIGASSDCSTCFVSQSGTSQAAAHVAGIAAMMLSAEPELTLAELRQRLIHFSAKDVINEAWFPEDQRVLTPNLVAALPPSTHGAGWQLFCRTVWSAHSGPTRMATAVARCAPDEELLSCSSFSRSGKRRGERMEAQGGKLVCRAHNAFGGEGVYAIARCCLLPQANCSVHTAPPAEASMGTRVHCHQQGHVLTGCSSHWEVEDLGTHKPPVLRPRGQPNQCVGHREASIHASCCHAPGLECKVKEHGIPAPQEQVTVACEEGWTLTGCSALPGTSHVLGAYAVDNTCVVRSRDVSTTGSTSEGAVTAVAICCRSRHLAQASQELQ

- Kd: 0.024 µM
Structure (SMILES): C/C(=N\Nc1nnn[nH]1)C(=O)N1CCC(c2ccccc2)CC1 [SRX200, (E)-2-(2-(1H-tetrazol-5-yl)hydrazono)-1-(4-phenylpiperidin-1-yl)propan-1-one]
